# In ChEMBL document CHEMBL3098031, “From NMDA receptor antagonists to discovery of selective σ₂ receptor ligands” (Bioorg Med Chem, 2014):
# Activity calls are given as the source filed them. No cut-off for these calls is given here.
# Key:
# Cavia porcellus = species: Cavia porcellus; assay: Selectivity ratio of Ki for guinea pig brain sigma1 receptor to Ki for guinea pig brain sigma2 receptor
# [1] = Displacement of [3H]DTG from guinea pig brain sigma2 receptor after 120 mins by scintillation counting analysis in presence of SKF10,047; set-up: species or system Cavia porcellus
# [2] = molecular target: Sigma non-opioid intracellular receptor 1 (Cavia porcellus, UniProt Q60492); assay: Displacement of [3H]-(+)-pentazocine from guinea pig brain sigma1 receptor after 150 mins by scintillation counting analysis
# [3] = molecular target: Glutamate receptor ionotropic, NMDA 2B (Rattus norvegicus) (UniProt Q00960); assay: Displacement of [3H]ifenprodil from Wistar rat cerebral cortex glutamate NMDA receptor GluN2B subunit at 10 uM after 120 mins by scintillation counting analysis; format: tissue-based
# [4] = molecular target: Glutamate receptor ionotropic, NMDA 2B (Rattus norvegicus, UniProt Q00960); assay: Displacement of [3H]ifenprodil from Wistar rat cerebral cortex glutamate NMDA receptor GluN2B subunit after 120 mins by scintillation counting analysis; format: tissue-based
# Sequence of Glutamate receptor ionotropic, NMDA 2B (Q00960 whole entry): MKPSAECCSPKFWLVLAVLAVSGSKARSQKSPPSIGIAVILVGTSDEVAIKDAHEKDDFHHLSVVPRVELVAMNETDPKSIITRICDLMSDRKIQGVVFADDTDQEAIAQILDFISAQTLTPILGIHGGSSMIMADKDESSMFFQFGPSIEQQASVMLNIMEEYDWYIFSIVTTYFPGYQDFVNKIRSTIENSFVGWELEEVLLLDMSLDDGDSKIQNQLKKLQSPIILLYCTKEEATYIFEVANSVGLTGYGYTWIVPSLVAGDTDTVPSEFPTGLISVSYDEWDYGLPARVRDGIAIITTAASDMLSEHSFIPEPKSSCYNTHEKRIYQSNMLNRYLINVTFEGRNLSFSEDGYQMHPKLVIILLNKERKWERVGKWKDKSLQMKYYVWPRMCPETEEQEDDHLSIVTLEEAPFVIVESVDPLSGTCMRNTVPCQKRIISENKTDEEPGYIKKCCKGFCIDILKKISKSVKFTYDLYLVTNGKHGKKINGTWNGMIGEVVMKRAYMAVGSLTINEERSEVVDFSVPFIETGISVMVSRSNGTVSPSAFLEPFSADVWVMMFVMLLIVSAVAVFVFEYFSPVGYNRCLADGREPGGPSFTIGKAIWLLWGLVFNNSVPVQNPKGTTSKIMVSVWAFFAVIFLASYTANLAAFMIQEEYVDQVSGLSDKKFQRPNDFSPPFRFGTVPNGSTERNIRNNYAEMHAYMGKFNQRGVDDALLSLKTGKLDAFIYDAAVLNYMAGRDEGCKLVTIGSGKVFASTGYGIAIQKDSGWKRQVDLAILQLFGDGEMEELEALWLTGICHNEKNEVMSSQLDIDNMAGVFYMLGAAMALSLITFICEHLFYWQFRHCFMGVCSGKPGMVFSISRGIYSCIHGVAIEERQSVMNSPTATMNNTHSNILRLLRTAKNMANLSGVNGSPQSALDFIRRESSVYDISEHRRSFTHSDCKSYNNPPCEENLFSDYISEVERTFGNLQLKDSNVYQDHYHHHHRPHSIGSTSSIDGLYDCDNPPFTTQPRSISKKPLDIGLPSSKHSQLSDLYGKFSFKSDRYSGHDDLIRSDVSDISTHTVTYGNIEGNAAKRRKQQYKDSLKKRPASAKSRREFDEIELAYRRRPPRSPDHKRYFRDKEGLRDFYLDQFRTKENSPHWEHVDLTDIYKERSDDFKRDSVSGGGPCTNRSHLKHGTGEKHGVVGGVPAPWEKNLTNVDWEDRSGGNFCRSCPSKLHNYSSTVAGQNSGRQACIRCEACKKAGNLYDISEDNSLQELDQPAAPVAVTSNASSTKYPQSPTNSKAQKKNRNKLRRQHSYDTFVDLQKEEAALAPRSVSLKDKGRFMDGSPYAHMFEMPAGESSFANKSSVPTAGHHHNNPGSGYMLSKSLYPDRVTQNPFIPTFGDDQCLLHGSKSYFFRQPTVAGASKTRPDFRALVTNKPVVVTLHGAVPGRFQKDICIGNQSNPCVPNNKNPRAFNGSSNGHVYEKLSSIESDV
# Sequence of Sigma non-opioid intracellular receptor 1 (Q60492 whole entry): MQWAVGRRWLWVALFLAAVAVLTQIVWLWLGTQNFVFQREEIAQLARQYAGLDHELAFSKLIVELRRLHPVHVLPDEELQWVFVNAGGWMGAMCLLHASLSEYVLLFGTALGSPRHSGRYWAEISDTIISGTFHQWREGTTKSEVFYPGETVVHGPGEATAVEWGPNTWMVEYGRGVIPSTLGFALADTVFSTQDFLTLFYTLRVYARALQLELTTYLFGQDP
# Sequence of Glutamate receptor ionotropic, NMDA 2B (Rattus norvegicus) (Q00960 27-1482 limits assumed): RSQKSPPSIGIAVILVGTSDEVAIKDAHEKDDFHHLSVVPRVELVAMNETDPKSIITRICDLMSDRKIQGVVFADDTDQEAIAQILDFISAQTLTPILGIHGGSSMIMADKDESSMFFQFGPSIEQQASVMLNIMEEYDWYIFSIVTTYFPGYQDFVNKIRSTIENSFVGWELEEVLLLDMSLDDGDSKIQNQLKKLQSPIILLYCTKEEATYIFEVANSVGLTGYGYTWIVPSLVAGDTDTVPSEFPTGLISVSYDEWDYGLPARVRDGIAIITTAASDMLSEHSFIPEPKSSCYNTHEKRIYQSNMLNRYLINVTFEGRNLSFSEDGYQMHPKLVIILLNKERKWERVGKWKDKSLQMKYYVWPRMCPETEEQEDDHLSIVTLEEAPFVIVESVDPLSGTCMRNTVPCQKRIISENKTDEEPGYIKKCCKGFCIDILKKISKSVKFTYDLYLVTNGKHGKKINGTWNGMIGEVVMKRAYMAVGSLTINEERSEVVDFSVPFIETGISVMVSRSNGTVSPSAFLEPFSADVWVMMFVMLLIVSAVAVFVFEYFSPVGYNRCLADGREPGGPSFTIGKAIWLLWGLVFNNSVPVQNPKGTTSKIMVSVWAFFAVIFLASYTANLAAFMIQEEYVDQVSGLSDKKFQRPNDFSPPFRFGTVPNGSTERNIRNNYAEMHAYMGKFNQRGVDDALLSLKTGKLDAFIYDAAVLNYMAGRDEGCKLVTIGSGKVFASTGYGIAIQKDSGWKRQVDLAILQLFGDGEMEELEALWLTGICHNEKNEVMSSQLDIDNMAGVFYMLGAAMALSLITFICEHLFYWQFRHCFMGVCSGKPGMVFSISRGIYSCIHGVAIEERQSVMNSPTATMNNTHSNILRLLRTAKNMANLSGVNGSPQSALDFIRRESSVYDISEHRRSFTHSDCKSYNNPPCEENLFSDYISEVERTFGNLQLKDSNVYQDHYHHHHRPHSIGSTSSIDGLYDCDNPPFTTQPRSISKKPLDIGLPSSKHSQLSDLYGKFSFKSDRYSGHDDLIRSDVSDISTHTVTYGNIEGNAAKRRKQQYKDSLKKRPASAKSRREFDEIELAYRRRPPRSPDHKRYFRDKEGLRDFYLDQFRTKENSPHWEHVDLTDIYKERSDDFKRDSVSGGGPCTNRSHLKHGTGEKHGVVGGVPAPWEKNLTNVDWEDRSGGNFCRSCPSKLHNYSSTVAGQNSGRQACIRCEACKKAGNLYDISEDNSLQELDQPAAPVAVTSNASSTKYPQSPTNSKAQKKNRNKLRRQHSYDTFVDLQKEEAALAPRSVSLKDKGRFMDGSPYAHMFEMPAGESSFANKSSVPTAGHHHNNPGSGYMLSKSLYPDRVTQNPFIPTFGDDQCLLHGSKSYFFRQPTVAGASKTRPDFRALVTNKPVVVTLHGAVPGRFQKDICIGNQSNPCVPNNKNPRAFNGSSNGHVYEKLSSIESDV
SMILES,Ratio Ki (Cavia porcellus),Ki [1],Ki [2],inhibition [3],Ki [4]
O=C(CN1CCC(c2ccccc2)CC1)c1c[nH]c2ccc(O)cc12,12,224 nM,2680 nM,51%,–
N#CC1(c2ccccc2)CCN(CC(=O)c2c[nH]c3ccc(O)cc23)CC1,–,–,–,16%,–
COc1ccc2[nH]cc(C(=O)CN3CCC(c4ccccc4)CC3)c2c1,95.5,20 nM,1910 nM,8%,–
O=C(CN1CCC(O)(c2ccc(Br)cc2)CC1)c1c[nH]c2ccc(O)cc12,3.2,57 nM,185 nM,40%,–
COc1ccc2[nH]cc(C(=O)CN3CCC(C#N)(c4ccccc4)CC3)c2c1,–,–,–,11%,–
COc1ccc2[nH]cc(C(=O)CN3CCC(O)(c4ccccc4)CC3)c2c1,5,21 nM,103 nM,11%,–
O=C(CN1CCC(O)(c2ccc(Cl)cc2)CC1)c1c[nH]c2ccc(O)cc12,11.9,47 nM,557 nM,26%,–
O=C(CN1CCC(Cc2ccccc2)CC1)c1c[nH]c2ccc(O)cc12,61.9,76.5 nM,4730 nM,92%,–
COc1ccc2[nH]cc(C(=O)CN3CCC(C(C)=O)(c4ccccc4)CC3)c2c1,–,–,–,inactive,–
CC(=O)C1(c2ccccc2)CCN(CC(=O)c2c[nH]c3ccc(O)cc23)CC1,–,–,–,6%,–
COc1ccc2[nH]cc(C(=O)CN3CCC(O)(c4ccc(Cl)cc4)CC3)c2c1,10.5,7.5 nM,78.5 nM,15%,–
COc1ccc2[nH]cc(C(=O)CN3CCC(Cc4ccccc4)CC3)c2c1,> 500,10 nM,> 5000 nM,86%,1670 nM
COc1ccc2[nH]cc(C(=O)CN3CCC(O)(c4ccc(Br)cc4)CC3)c2c1,6,10 nM,60 nM,5%,–
O=C(CN1CCC(O)(c2ccccc2)CC1)c1c[nH]c2ccc(O)cc12,4.7,658 nM,3080 nM,32%,–
